Source: patent US20230364089A1, “COMPOUNDS AND COMPOSITIONS FOR THE TREATMENT OR PREVENTION OF PATHOLOGICAL CONDITIONS ASSOCIATED WITH EXCESS FIBRIN DEPOSITION AND/OR THROMBUS FORMATION” (Cereno Scientific AB, priority 2016, published 2023)
Where two headings read alike, the source gives them in different places. Blank lines part the entries; values can stand above or below the compound they belong to.

How the values were obtained:
[1] = cited from earlier work
[2] = once daily (in healthy volunteers); cited from earlier work
[3] = Example 3 clinical outcome study in high-risk patients: recurrent atherothrombotic events; assay type: in vivo, human; conditions: 400 mg valproic acid once daily at 11 pm, long-term, expected
Procedure: A clinical outcome study is performed in high-risk patients who have experienced a recent major atherothrombotic cardiovascular event (myocardial infarction or TIA/ischemic stroke) to investigate the preventive effect of valproic acid treatment on the risk for recurrent events. The annual risk for a recurrent atherothrombotic event in the investigated population is estimated to approximately 7%. […] The event rate is monitored by Kaplan-Meyer statistics. The primary efficacy endpoint is the composite measure of either mortality, or non-fatal myocardial infarction or ischemic stroke. The study is event-driven to a total of 180 events. […] Thus, the study is expected to confirm the clinical efficacy and feasibility of using valproic acid for secondary prevention of cardiovascular disease.

PAI-1 [4] = assay: Proof-of-concept study 2: plasma PAI-1 before and after VPA in patients with a history of myocardial infarction; assay type: in vivo, human; conditions: midmorning; for reduction in circulating plasma PAI-1 levels: 16 male patients with history of myocardial infarction, valproic acid 500 mg (Ergenyl Retard) twice daily for 28 days on top of ordinary prescription, p=0.01
Procedure: (§1) The effects of VPA on PAI-1 were analysed in two different proof-of-concept studies in healthy subjects as well as in patients with manifest atherosclerotic disease. […] PAI-1 plasma levels were measured in the morning at the first day of the study as well as at the end of the treatment period with VPA (see example 2 for details on the PAI-1 analysis).
In the second study, 16 non-smoking white male patients, aged 50-80 years with a history of a myocardial infarction were included. On top of their ordinary prescription (beta-blocker, ACE-inhibitor, statin, aspirin) they were treated with valproic acid 500 mg (Ergenyl Retard, Sanofi), twice daily during 28 days.

PAI-1 [5] = assay: Proof-of-concept study 1: plasma PAI-1 before and after VPA in healthy subjects; assay type: in vivo, human
Procedure: as §1
In the first study, 10 healthy non-smoking white male subjects (with mean BMI of approximately 26), aged 50-70 years were included and treated with valproic acid 500 mg (Ergenyl Retard, Sanofi) twice daily during 14 days.

PAI-1 [6] = assay: Example 2 intermediate endpoint study in patients with TIA/minor stroke: plasma PAI-1 and plasma valproic acid
Procedure: An intermediate endpoint proof-of-concept study is performed in patients with TIA/minor stroke investigated before and after treatment with Valproic acid. Valproic acid is administrated as an enteric-coated tablet with delayed absorption.
The study comprises 20 patients with TIA/minor stroke. Patients are investigated before and after oral treatment with 400 mg valproic acid once time daily at 11 pm for 2 weeks. Plasma PAI-1 levels and plasma concentrations of valproic acid is followed daily during the study period at the following time-points: 3 am, 6 am, 10 am, 16 pm, 22 pm PAI-1 levels are measured by commercially available ELISA-kits (Coaliza PAI-1, ChromogenixAB) and the plasma concentration of valproic acid an metabolites thereof is analyzed according to clinical routine at the Sahlgrenska University laboratory, Gothenburg, Sweden.

[7] = tested on: cultured endothelial cells; assay: PAI-1 mRNA / production in cultured endothelial cells after VPA treatment; assay type: cell-based; conditions: no decrease of PAI-1 mRNA levels, slight but significant increase
PAI-1 [8] = assay: Plasma PAI-1 in in vivo model in mouse; conditions: in vivo model in mouse (unpublished data)
PAI-1 [9] = conditions: in vivo model in pig (Svennerholm et al., PLoS One 2014); cited from earlier work

SMILES: O=C(/C=C/c1cccc(S(=O)(=O)Nc2ccccc2)c1)NO [Belinostat, (2E)-3-[3-(anilinosulfonyl)phenyl]-N-hydroxy-acrylamide]
MTD ([1]; bidaily): 1000 mg bidaily

SMILES: CCN(CC)Cc1ccc2cc(COC(=O)Nc3ccc(C(=O)NO)cc3)ccc2c1.Cl [Givinostat, {6-[(diethylamino)methyl]-naphthalen-2-yl}methyl[4-(hydroxycarbamoyl)phenyl]carbamate]
MTD [2]: 200 mg once daily (in healthy volunteers)

SMILES: Cc1[nH]c2ccccc2c1CCNCc1ccc(/C=C/C(=O)NO)cc1 [Panobinostat, (E)-N-hydroxy-3-[4-[[2-(2-methyl-1H-indol-3-yl)ethylamino]methyl]phenyl]prop-2-enamide]
MTD ([1]; every other day): 20 mg every other day

SMILES: CCCCc1nc2cc(/C=C/C(=O)NO)ccc2n1CCN(CC)CC [SB939, (2E)-3-{2-butyl-1-[2-(diethylamino)ethyl]-1H-benzimidazol-5-yl}-N-hydroxyacrylamide]
MTD ([1]; once daily): 60 mg once daily

SMILES: O=C(CCCCCCC(=O)Nc1ccccc1)NO [Vorinostat, N-hydroxy-N′-phenyl-octanediamide]
MTD ([1]; once daily): 400 mg once daily

time of peak plasma concentration of valproic acid (PAI-1 [6]; 400 mg valproic acid enteric-coated tablet with delayed absorption, oral once daily at 11 pm for 2 weeks): between 3 am and 6 am
SMILES: CCCC(CCC)C(=O)O [valproic acid, 2-propylpentanoic acid]
reduction of risk for recurrent atherothrombotic event ([3]; in addition to conventional therapy): approximately 30%
annual absolute event rate ([3]; approximately 7% estimated without treatment): approximately 5%
reduction in circulating plasma PAI-1 levels (PAI-1 [4]): 45%
reduction in circulating plasma PAI-1 levels (PAI-1 [4]; listed as VPA): about 45%
circulating plasma PAI-1 level after treatment (PAI-1 [4]; patients with history of myocardial infarction, valproic acid 500 mg twice daily for 28 days, 19.6 ng/ml before treatment): 11 ng/mL
reduction in circulating plasma PAI-1 levels (PAI-1 [5]; 10 healthy men aged 50-70, valproic acid 500 mg (Ergenyl Retard) twice daily for 14 days, mid-morning vs before treatment, p<0.05): more than 50%
circulating plasma PAI-1 level after treatment (PAI-1 [5]; healthy men, valproic acid 500 mg twice daily for 14 days, mid-morning, 22.2 ng/ml before treatment): 10.8 ng/mL
lowering of plasma PAI-1 levels after the treatment (PAI-1 [6]; 400 mg valproic acid oral once daily at 11 pm for 2 weeks): approximately 30%
increase in PAI-1 production [7]: 30%
effects on plasma PAI-1 (PAI-1 [8]): did not detect any effects
effects on plasma PAI-1 (PAI-1 [9]): did not detect any effects
